The nature of data set [1]: DRUGMATRIX: Sodium/nucleoside co-transporter radioligand binding (ligand: nitrobenzylthioinosine). The format is cell membranes, Cavia porcellus, Dunkin-Hartley, Cerebral cortex, Membrane. The note with it: Not Active = under 50% inhibition at 10 µM.
In data set [2] the target is T1, Alpha-1A adrenergic receptor (Rattus norvegicus, UniProt P43140).
T1 sequence (P43140 whole entry): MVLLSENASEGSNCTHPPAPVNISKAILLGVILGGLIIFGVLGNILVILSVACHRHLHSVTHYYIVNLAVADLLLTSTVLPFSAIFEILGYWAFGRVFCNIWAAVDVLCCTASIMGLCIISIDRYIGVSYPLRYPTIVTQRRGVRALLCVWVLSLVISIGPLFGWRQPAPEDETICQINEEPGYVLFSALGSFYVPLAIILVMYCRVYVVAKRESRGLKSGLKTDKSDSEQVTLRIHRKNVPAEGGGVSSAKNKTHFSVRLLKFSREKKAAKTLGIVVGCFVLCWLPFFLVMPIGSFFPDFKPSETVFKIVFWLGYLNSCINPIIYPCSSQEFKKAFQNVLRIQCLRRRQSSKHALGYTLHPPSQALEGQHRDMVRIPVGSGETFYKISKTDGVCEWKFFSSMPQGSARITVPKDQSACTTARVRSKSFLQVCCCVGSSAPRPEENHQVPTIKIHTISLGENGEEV
Put plainly: DRUGMATRIX: Alpha-1A adrenergic receptor radioligand binding (ligand: prazosin). The format is cell membranes, Wistar, Submaxillary gland, Membrane. The note with it: Not Active = under 50% inhibition at 10 µM; for Ki: read-out: Ki.

Data set [3] has as its target Aldo-keto reductase family 1 member B1 (Rattus norvegicus, UniProt P07943). In kind it is tissue-based, Lens of camera-type eye.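 Note: inhibition of aldose reductase enzyme activity, measured with DL-glyceraldehyde as the substrate; in other assays of this panel Not Active means under 50% inhibition at 10 µM.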
Another data set concerns the target T2, Calcitonin receptor (Homo sapiens, UniProt P30988). Note: in other assays of this panel Not Active means under 50% inhibition at 10 µM.
T2 sequence (P30988 whole entry): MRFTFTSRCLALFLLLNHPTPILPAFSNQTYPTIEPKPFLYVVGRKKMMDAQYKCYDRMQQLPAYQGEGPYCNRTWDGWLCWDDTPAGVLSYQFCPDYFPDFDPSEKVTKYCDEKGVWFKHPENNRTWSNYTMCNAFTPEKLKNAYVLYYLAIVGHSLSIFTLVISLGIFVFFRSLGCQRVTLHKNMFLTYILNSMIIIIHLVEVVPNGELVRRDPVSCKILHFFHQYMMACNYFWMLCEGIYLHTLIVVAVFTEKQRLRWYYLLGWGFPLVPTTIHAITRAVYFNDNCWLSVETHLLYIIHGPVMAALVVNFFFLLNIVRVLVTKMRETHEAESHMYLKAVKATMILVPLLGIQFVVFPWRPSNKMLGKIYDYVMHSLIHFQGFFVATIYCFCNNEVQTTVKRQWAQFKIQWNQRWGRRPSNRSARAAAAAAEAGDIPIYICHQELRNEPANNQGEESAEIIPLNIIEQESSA
The format is cell membranes, Membrane. The following applies: t47d.

In data set [4] the target is Sodium-dependent dopamine transporter (Homo sapiens, UniProt Q01959). The data set can be described thus: DRUGMATRIX: Dopamine Transporter radioligand binding (ligand: [125I] RTI-55). The note with it: Not Active = under 50% inhibition at 10 µM; for Ki: read-out: Ki. In kind it is cell membranes, CHO-K1, Membrane.
Sequence of Sodium-dependent dopamine transporter (Q01959 whole entry): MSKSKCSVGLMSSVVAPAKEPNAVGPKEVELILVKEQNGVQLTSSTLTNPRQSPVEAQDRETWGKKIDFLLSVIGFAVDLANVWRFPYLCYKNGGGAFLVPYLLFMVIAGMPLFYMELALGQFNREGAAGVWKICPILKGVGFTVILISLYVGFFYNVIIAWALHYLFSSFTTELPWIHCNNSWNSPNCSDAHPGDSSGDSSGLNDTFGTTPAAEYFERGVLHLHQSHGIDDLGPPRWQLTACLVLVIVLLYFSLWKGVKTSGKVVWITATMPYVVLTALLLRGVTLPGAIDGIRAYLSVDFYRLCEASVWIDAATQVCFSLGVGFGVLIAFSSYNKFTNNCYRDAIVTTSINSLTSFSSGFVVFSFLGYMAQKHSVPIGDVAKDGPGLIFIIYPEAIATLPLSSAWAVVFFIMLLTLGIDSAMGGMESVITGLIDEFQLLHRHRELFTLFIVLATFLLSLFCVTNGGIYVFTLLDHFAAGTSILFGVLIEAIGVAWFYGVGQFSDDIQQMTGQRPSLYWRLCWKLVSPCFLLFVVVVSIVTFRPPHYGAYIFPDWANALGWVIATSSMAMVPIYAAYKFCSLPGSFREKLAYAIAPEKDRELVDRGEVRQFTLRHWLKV
Data set [5] is described as follows: DRUGMATRIX: Phosphodiesterase PDE3 enzyme inhibition (substrate: [3H]cAMP + cAMP). The following applies: platelet; Not Active = under 50% inhibition at 10 µM. The format is tissue-based, Homo sapiens.
Another data set deals with Cytochrome P450 2E1 (Homo sapiens, UniProt P05181). The note with it: bti-tn-5b1-4.
Sequence of Cytochrome P450 2E1 (P05181 whole entry): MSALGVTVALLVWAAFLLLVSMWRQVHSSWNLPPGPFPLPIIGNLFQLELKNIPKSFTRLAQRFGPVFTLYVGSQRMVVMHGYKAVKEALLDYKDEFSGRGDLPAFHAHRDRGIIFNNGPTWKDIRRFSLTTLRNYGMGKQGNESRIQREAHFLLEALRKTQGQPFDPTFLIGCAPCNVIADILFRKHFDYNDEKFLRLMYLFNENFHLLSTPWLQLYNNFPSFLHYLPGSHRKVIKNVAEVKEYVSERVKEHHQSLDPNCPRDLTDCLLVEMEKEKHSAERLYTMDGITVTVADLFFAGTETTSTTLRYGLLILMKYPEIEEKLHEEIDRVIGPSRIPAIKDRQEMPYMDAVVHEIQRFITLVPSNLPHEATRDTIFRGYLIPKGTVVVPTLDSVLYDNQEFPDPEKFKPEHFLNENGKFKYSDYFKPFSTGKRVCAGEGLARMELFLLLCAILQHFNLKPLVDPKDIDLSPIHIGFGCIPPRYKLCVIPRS

For 20 compounds, IC50 and Ki results are on record in ChEMBL document CHEMBL1909046, “DrugMatrix in vitro pharmacology data”.

Turning to `Cc1c(C)c2c(c(C)c1O)CCC(C)(CN1CCN(c3cc(N4CCCC4)nc(N4CCCC4)n3)CC1)O2` (stereo not drawn), the IC50 (commonly the concentration that inhibits the measured activity by half) in data set [1] was “Not Active”; in data set [2] it was “Not Active”; in data set [3] it was “Not Active”; on Calcitonin receptor it was “Not Active”; in data set [4] (read-out: IC50), 13.4 µM; in data set [5], “Not Active”. The figures for the Ki result in data set [1], in data set [4] and in data set [5] were “Not Active”, 10.6 µM and “Not Active”, respectively.
On to `COc1ccc(CCN(C)CCCC(C#N)(c2ccc(OC)c(OC)c2)C(C)C)cc1OC` (stereo not drawn), for which the IC50 result (in data set [1]; in data set [3]; at Calcitonin receptor; in data set [4] (cho-k1); in data set [5]; on Cytochrome P450 2E1) was “Not Active” in each case. The Ki result (in data set [1]; in data set [5]; on Cytochrome P450 2E1) was “Not Active” in each case.
With `CC(C)Cc1ccc([C@@H](C)C(=O)O)cc1` [(R)-IBUPROPHEN], the IC50 entry (in data set [1]; in data set [2]; in data set [3]; on Calcitonin receptor; in data set [4] (cho-k1); in data set [5]) was “Not Active” each time. In addition, on Cytochrome P450 2E1, the IC50 entry is on record as “Not Active”. In addition, the Ki result (in data set [1]; in data set [5]; at Cytochrome P450 2E1) was “Not Active” each time.
Turning to `CN(C)CCOC(c1ccccc1)c1ccccc1` [DIPHENHYDRAMINE], the IC50 entry (in data set [2]; in data set [3]; on Calcitonin receptor; in data set [4] (cho-k1)) was “Not Active” throughout.
For `Clc1ccc(COC(Cn2ccnc2)c2ccc(Cl)cc2Cl)cc1` (stereo not drawn) [ECONAZOLE], the IC50 in data set [2] (read-out: IC50) is 21.2 µM; in data set [3], “Not Active”; at Calcitonin receptor, “Not Active”; at Cytochrome P450 2E1 it was “Not Active”. Moreover, the Ki (in general, the equilibrium dissociation constant of an inhibitor or competing ligand from its target) in data set [2] was 8570 nM; on Cytochrome P450 2E1, “Not Active”.
For the compound `CCN(CC)CCOc1ccc(/C(=C(/Cl)c2ccccc2)c2ccccc2)cc1` [ENCLOMIPHENE], the half-maximal inhibitory concentration (IC50) result (in data set [2]; in data set [3]; at Calcitonin receptor; against Cytochrome P450 2E1) was “Not Active” in each case. In addition, the Ki result at Cytochrome P450 2E1 is on record as “Not Active”.
For `Fc1ccc(C(c2ccc(F)cc2)N2CCN(C/C=C/c3ccccc3)CC2)cc1` [FLUNARIZINE], the IC50 in data set [2] (read-out: IC50) was 1.09 µM; in data set [3] it was “Not Active”; on Calcitonin receptor, “Not Active”; in data set [4] (read-out: IC50), 0.584 µM; against Cytochrome P450 2E1 it was “Not Active”. Moreover, the results for the Ki (in data set [2]; in data set [4]; on Cytochrome P450 2E1) were 440 nM, 0.464 µM and “Not Active”, respectively.
Consider `CNCCC(Oc1ccc(C(F)(F)F)cc1)c1ccccc1` (stereo not drawn) [FLUOXETINE], for which the IC50 entry (in data set [2]; in data set [3]; on Calcitonin receptor; in data set [4] (cho-k1); at Cytochrome P450 2E1) was “Not Active” throughout. Moreover, on Cytochrome P450 2E1, the inhibition constant (Ki) entry is listed as “Not Active”.
On to `Cc1ccc(NC(=O)c2ccc(CN3CCN(C)CC3)cc2)cc1Nc1nccc(-c2cccnc2)n1` [IMATINIB], for which the IC50 result (in data set [2]; in data set [3]; at Calcitonin receptor; in data set [4] (cho-k1); on Cytochrome P450 2E1) was “Not Active” in each case. The Ki result at Cytochrome P450 2E1 is recorded as “Not Active”.
On to `CC(C)Oc1ccc2c(=O)c(-c3ccccc3)coc2c1` [IPRIFLAVONE], for which the IC50 result (in data set [1]; in data set [2]; in data set [3]; on Calcitonin receptor; in data set [4] (cho-k1); in data set [5]) was “Not Active” in each case. Also, at Cytochrome P450 2E1, the IC50 result is “Not Active”. Further, the Ki entry (in data set [1]; in data set [5]; at Cytochrome P450 2E1) was “Not Active” each time.
On to `CC(C)NCC(O)c1ccc(O)c(O)c1` (stereo not drawn) [ISOPROTERENOL], for which the half-inhibitory concentration (IC50) result (in data set [1]; in data set [2]; in data set [3]; at Calcitonin receptor; in data set [4] (cho-k1); in data set [5]) was “Not Active” in each case. Besides, at Cytochrome P450 2E1, the IC50 entry is “Not Active”. Moreover, the Ki entry (in data set [1]; in data set [5]; at Cytochrome P450 2E1) was “Not Active” each time.
On to `CNC1(c2ccccc2Cl)CCCCC1=O` (stereo not drawn) [KETAMINE], for which the IC50 entry (in data set [1]; in data set [2]; in data set [3]; on Calcitonin receptor; in data set [4] (cho-k1); in data set [5]) was “Not Active” in each case. Further, at Cytochrome P450 2E1, the concentration for half-maximal inhibition (IC50) result was “Not Active”. Further, the Ki entry (in data set [1]; in data set [5]; at Cytochrome P450 2E1) was “Not Active” each time.
For `N#Cc1ccc(C(c2ccc(C#N)cc2)n2cncn2)cc1` [LETROZOLE], the IC50 entry (in data set [1]; in data set [2]; in data set [3]; at Calcitonin receptor; in data set [4] (cho-k1); in data set [5]) was “Not Active” in each case. Further, on Cytochrome P450 2E1, the IC50 result is “Not Active”. The Ki result (in data set [1]; in data set [5]; on Cytochrome P450 2E1) was “Not Active” each time.
Regarding `CCN1CCC[C@H]1CNC(=O)c1cc(S(N)(=O)=O)ccc1OC` [LEVOSULPIRIDE], the IC50 entry (in data set [1]; in data set [2]; in data set [3]; on Calcitonin receptor; in data set [4] (cho-k1); in data set [5]) was “Not Active” throughout. Moreover, on Cytochrome P450 2E1, the IC50 entry was “Not Active”. Further, the Ki result (in data set [1]; in data set [5]; at Cytochrome P450 2E1) was “Not Active” throughout.
On to `CCN(CC)CC(=O)Nc1c(C)cccc1C` [LIDOCAINE], for which the IC50 entry (in data set [1]; in data set [2]; in data set [3]; on Calcitonin receptor; in data set [4] (cho-k1); in data set [5]) was “Not Active” in each case. Moreover, the 50% inhibitory concentration (IC50) result against Cytochrome P450 2E1 is “Not Active”. Further, the inhibitory constant (Ki) result (in data set [1]; in data set [5]; at Cytochrome P450 2E1) was “Not Active” each time.
For `O=C1Nc2ccc(Cl)cc2C(c2ccccc2Cl)=NC1O` (stereo not drawn) [LORAZEPAM], the IC50 result (in data set [1]; in data set [2]; in data set [3]; on Calcitonin receptor; in data set [4] (cho-k1); in data set [5]) was “Not Active” each time. Moreover, on Cytochrome P450 2E1, the IC50 entry is “Not Active”. For the same compound, the inhibition constant Ki entry (in data set [1]; in data set [5]; at Cytochrome P450 2E1) was “Not Active” in each case.
For the compound `CO[C@@H]1[C@@H](OC)[C@H](C)[C@@](O)(CC(=O)O)O[C@H]1[C@H](C)[C@H]1O[C@@]2(CC[C@@](C)([C@H]3CC[C@@](C)([C@@H]4O[C@@H]([C@H]5O[C@](C)(O)[C@H](C)C[C@@H]5C)C[C@@H]4O[C@@H]4C[C@H](OC)[C@@H](OC)[C@H](C)O4)O3)O2)C[C@H](O)[C@H]1C` [MADURAMICIN ACID], the IC50 entry in data set [1] is “Not Active”; in data set [2] (read-out: IC50), 3.34 µM; in data set [3], “Not Active”; at Calcitonin receptor it was “Not Active”; in data set [4] (cho-k1), “Not Active”; in data set [5] it was “Not Active”. Moreover, the IC50 entry against Cytochrome P450 2E1 is listed as “Not Active”. In addition, the Ki result in data set [1] was “Not Active”; in data set [2], 1350 nM; in data set [5], “Not Active”; at Cytochrome P450 2E1, “Not Active”.
In the case of `COc1c2occc2cc2ccc(=O)oc12` [METHOXSALEN], the 50% inhibitory concentration (IC50) result (in data set [1]; in data set [2]; in data set [3]; on Calcitonin receptor; in data set [4] (cho-k1); in data set [5]) was “Not Active” throughout. Moreover, at Cytochrome P450 2E1, the IC50 entry is listed as “Not Active”. For the same compound, the Ki entry (in data set [1]; in data set [5]; at Cytochrome P450 2E1) was “Not Active” in each case.
As for `CN[C@H]1CC[C@@H](c2ccc(Cl)c(Cl)c2)c2ccccc21` [SERTRALINE], the half-maximal inhibitory concentration (IC50) result (in data set [2]; in data set [3]; at Calcitonin receptor; against Cytochrome P450 2E1) was “Not Active” each time. Also, the Ki entry on Cytochrome P450 2E1 is recorded as “Not Active”.
Take `COc1cc2nc(N3CCN(C(=O)C4CCCO4)CC3)nc(N)c2cc1OC` (stereo not drawn) [TERAZOSIN]: the IC50 entry (in data set [1]; in data set [3]; on Calcitonin receptor; in data set [4] (cho-k1); in data set [5]; on Cytochrome P450 2E1) was “Not Active” throughout. Moreover, the Ki entry (in data set [1]; in data set [5]; on Cytochrome P450 2E1) was “Not Active” in each case.
